Data as given in patent US12240862B2, “Inhibitors of peptidylarginine deiminases” (Gilead Sciences, Inc., priority 2020, dated 2025).

Target: T1, human PAD4 (Homo sapiens, UniProt Q9UM07)
T1 construct: human PAD4 (NM_012387), A2P663, was PCR amplified; His-SUMO (N, cleaved yes); made in house; host or cells: E. coli BL21(DE3)
Test: In vitro PAD4 BAEE biochemical assay
Details: human PAD4, BAEE substrate; 5 nM PAD4, 2 mM calcium chloride, 3 mM BAEE; geometric mean of multiple experiments
How it was run: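 Tag-free recombinant hPAD4 (5 nM), 2 mM CaCl2, 3 mM BAEE, 50 mM MOPS pH 7.6, 2 mM DTT; 30 min compound preincubation, 2 h reaction, all 25 °C. EDTA quench; ammonia read via o-phthalaldehyde amine coupling, 1 h.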

T1 sequence (Q9UM07 2-663): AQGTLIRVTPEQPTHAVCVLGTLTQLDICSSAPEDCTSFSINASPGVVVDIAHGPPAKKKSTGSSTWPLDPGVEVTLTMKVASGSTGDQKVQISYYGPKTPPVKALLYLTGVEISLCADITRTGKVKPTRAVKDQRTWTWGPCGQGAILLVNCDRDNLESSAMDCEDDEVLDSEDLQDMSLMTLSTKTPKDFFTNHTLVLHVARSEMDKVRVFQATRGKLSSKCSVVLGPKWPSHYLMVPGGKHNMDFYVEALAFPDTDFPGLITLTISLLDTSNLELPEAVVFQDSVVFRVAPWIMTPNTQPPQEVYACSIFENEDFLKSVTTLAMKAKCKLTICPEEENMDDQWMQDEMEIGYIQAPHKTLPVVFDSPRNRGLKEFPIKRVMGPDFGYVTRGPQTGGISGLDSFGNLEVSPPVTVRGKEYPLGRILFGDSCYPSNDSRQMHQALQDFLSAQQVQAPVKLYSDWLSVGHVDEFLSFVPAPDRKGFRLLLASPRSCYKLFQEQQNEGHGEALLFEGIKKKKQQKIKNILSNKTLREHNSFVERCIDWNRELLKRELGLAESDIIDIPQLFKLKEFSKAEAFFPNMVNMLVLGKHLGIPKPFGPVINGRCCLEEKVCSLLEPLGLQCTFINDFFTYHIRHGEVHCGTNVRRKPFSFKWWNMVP

Structure (SMILES)	IC50 [nM]
COc1cc(C(=O)N2[C@H]3CC[C@@H]2[C@H](N)C3)cc2nc(-c3cc4ccc([C@@H](C)Nc5ccccn5)nc4n3CC3CC3)c(C)n12 [Example 261, [(1~{R},2~{R},4~{S})-2-amino-7-azabicyclo [2.2.1]heptan-7-yl]-[2-[1-(cyclopropylmethyl)-6-[(1~{R})-1-(pyridin-2-ylamino)ethyl]pyrrolo[2,3-b]pyridin-2-yl]-5-methoxy-3-methylimidazo[1,2-a]pyridin-7-yl]methanone]	144
COc1cc(C(=O)N2CCC3(CCCN3)CC2)cc2nc(-c3cc4ccc(N(C(F)F)S(C)(=O)=O)nc4n3CC3CC3)c(C)n12 [Example 342, ~{N}-[1-(cyclopropylmethyl)-2-[7-(1,8-diazaspiro[4.5]decane-8-carbonyl)-5-methoxy-3-methylimidazo[1,2-a]pyridin-2-yl]pyrrolo[2,3-b]pyridin-6-yl]-~{N}-(difluoromethyl) methanesulfonamide]	14100
COc1cc(C(=O)N2CCC[C@@H](N)C2)cc2nc(-c3cc4ccc([C@@H](C)NC(=O)c5ccccc5)nc4n3CC3CC3)c(C3CC3)n12 [Example 141, ~{N}-[(1~{R})-1-[2-[7-[(3~{R})-3-aminopiperidine-1-carbonyl]-3-cyclopropyl-5-methoxyimidazo [1,2-a]pyridin-2-yl]-1-(cyclopropylmethyl)pyrrolo [2,3-b]pyridin-6-yl]ethyl] benzamide]	187
COc1cc(C(=O)N2CCC[C@@H](N)C2)cc2nc(-c3cc4ccc([C@@H](C)NS(C)(=O)=O)nc4n3CC3CC3)c(C)n12 [Example 268, ~{N}-[(1~{R})-1-[2-[7-[(3~{R})-3-aminopiperidine-1-carbonyl]-5-methoxy-3-methylimidazo [1,2-a]pyridin-2-yl]-1-(cyclopropylmethyl)pyrrolo [2,3-b]pyridin-6-yl]ethyl]methanesulfonamide]	257
CCC1CC[C@@H]2CCN(C(=O)c3cc(OC)n4c(C)c(-c5cc6ccc([C@@H](C)NC(=O)C78CC(F)(C7)C8)nc6n5CC5CC5)nc4c3)C[C@@H]2N1 (some centres unmarked) [Example 12, ~{N}-[(1~{R})-1-[2-[7-[(4~{a}~{R}, 8~{a}~{R})-2-ethyl-2,3,4,4~{a}, 5,6,8,8~{a}-octahydro-1~{H}-1,7-naphthyridine-7-carbonyl]-5-methoxy-3-methylimidazo[1,2-a]pyridin-2-yl]-1-(cyclopropylmethyl)pyrrolo[2,3-b]pyridin-6-yl]ethyl]-3-fluorobicyclo[1.1.1] pentane-1-carboxamide]	29100
COc1cc(C(=O)N[C@H]2CNCC[C@@H]2C)cc2nc(-c3cc4ccc(N(C(F)F)S(C)(=O)=O)nc4n3CC3CC3)c(C)n12 [Example 282, 2-[1-(cyclopropylmethyl)-6-[difluoromethyl (methylsulfonyl)amino]pyrrolo[2,3-b]pyridin-2-yl]-5-methoxy-3-methyl-~{N}-[(3~{R},4~{S})-4-methylpiperidin-3-yl]imidazo[1,2-a] pyridine-7-carboxamide]	10400
COc1cc(C(=O)N2C[C@H]3CCC[C@@H]2[C@@H]3N)cc2nc(-c3cc4ccc(N(C(F)F)S(C)(=O)=O)nc4n3CC3CC3)c(C)n12 [Example 349, N-(2-(7-((1R,5R,8R)-8-amino-6-azabicyclo[3.2.1]octane-6-carbonyl)-5-methoxy-3-methylimidazo [1,2-a]pyridin-2-yl)-1-(cyclopropylmethyl)-1H-pyrrolo[2,3-b]pyridin-6-yl)-N-(difluoromethyl) methanesulfonamide]	485
COc1cc(C(=O)N2[C@H]3CC[C@@H]2[C@H](N)C3)cc2nc(-c3cc4ccc([C@@H](C)NC(=O)N5CCO[C@@H](C)C5)nc4n3CC3CC3)c(C)n12 [Example 201, (2~{S})-~{N}-[(1~{R})-1-[2-[7-[(1~{R},2~{R},4~{S})-2-amino-7-azabicyclo[2.2.1]heptane-7-carbonyl]-5-methoxy-3-methylimidazo [1,2-a]pyridin-2-yl]-1-(cyclopropylmethyl)pyrrolo [2,3-b]pyridin-6-yl]ethyl]-2-methylmorpholine-4-carboxamide]	17.4
CCOC(=O)C1CC1c1c(-c2cc3ccc(N(C(F)F)S(C)(=O)=O)nc3n2CC2CC2)nc2cc(C(=O)N3CCC[C@@H](N)C3)ccn12 (some centres unmarked) [Example 432, ethyl 2-[7-[(3~{R})-3-aminopiperidine-1-carbonyl]-2-[1-(cyclopropylmethyl)-6-[difluoromethyl (methylsulfonyl)amino]pyrrolo[2,3-b]pyridin-2-yl]imidazo[1,2-a]pyridin-3-yl]cyclopropane-1-carboxylate]	2490
COc1cc(C(=O)N2[C@H]3CC[C@@H]2[C@H](N)C3)cc2nc(-c3cc4ccc([C@@H](C)N5CCOC5=O)nc4n3CC3CC3)c(C)n12 [Example 275, 3-((R)-1-(2-(7-((1R,2R,4S)-2-amino-7-azabicyclo[2.2.1]heptane-7-carbonyl)-5-methoxy-3-methylimidazo[1,2-a]pyridin-2-yl)-1-(cyclopropylmethyl)-1H-pyrrolo[2,3-b]pyridin-6-yl)ethyl)oxazolidin-2-one]	14.1
COc1cc(C(=O)N2[C@H]3CC[C@@H]2[C@H](N)C3)cc2nc(-c3cc4ccc([C@@H](C)Nc5ncccn5)nc4n3CC3CC3)c(C)n12 [Example 265, ((1R,2R,4S)-2-amino-7-azabicyclo[2.2.1]heptan-7-yl)(2-(1-(cyclopropylmethyl)-6-((R)-1-(pyrimidin-2-ylamino)ethyl)-1H-pyrrolo[2,3-b]pyridin-2-yl)-5-methoxy-3-methylimidazo[1,2-a]pyridin-7-yl)methanone]	72
COc1cc(C(=O)N2CC[C@@H]3CCCN[C@@H]3C2)cc2nc(-c3cc4ccc([C@@H](C)NC(=O)C56CC(F)(C5)C6)nc4n3CC3CC3)c(C)n12 [Example 181, ~{N}-[(1~{R})-1-[2-[7-[(4~{a}~{S},8~{a}~{S})-2,3,4,4~{a},5,6,8,8~{a}-octahydro-1~{H}-1,7-naphthyridine-7-carbonyl]-5-methoxy-3-methylimidazo [1,2-a]pyridin-2-yl]-1-(cyclopropylmethyl)pyrrolo [2,3-b]pyridin-6-yl]ethyl]-3-fluorobicyclo[1.1.1]pentane-1-carboxamide]	10500
COc1cc(C(=O)N2[C@H]3CC[C@@H]2[C@H](N)C3)cc2nc(-c3cc4ccc([C@@H](C)NC(=O)C56CC(c7ccccc7)(C5)C6)nc4n3CC3CC3)c(C)n12 [Example 147, ~{N}-[(1~{R})-1-[2-[7-[(1~{R},2~{R},4~{S})-2-amino-7-azabicyclo[2.2.1]heptane-7-carbonyl]-5-methoxy-3-methylimidazo [1,2-a]pyridin-2-yl]-1-(cyclopropylmethyl)pyrrolo [2,3-b]pyridin-6-yl]ethyl]-3-phenylbicyclo[1.1.1]pentane-1-carboxamide]	403
COc1cc(C(=O)N2[C@H]3CC[C@H](N)[C@@H]2CC3)cc2nc(-c3cc4ccc(N(C(F)F)S(C)(=O)=O)nc4n3CC3CC3)c(C)n12 [Example 408, ~{N}-[2-[7-[(1~{S},2~{S}, 5~{S})-2-amino-8-azabicyclo[3.2.1]octane-8-carbonyl]-5-methoxy-3-methylimidazo[1,2-a]pyridin-2-yl]-1-(cyclopropylmethyl)pyrrolo [2,3-b]pyridin-6-yl]-~{N}-(difluoromethyl) methanesulfonamide]	3020
